Laboratory results from US20170334877A1, “REVAPRAZAN HYDROCHLORIDE POLYMORPHS AND PREPARATION METHOD THEREFOR” (JIANGSU TASLY DIYI PHARMACEUTICAL CO., LTD., priority 2014, published 2017).
Where a name gives a salt, the structure may show the parent alone. Blank lines part the entries; values can stand above or below the compound they belong to.

Legend:
Assay type in all cases: physicochemical
[1] = Accelerated test (40±2° C., relative humidity 75±5%, 6 months, sealed polyethylene film bag); conditions: for Appearance color / Purity (%) / Relevant substances: 40±2° C., RH 75±5%; for Purity (%) / Relevant substances: hydrochloride; for Stability (conclusion in words): accelerated test, no obvious changes in appearance color, purity, relevant substances
Procedure: Revaprazan hydrochloride crystalline form I is sealed in a polyethylene film bag, is placed for 6 months under the conditions that the temperature is 40±2° C. and the relative humidity is 75±5%, and is respectively sampled at the end of the 1st Month, the 2nd Month, the 3rd Month and the 6^thMonth for detection; and the results are shown in Table 4. Revaprazan hydrochloride crystalline form II is sealed in a polyethylene film bag and is placed for 6 months under the conditions that the temperature is 40±2° C. and the relative humidity is 75±5%, and is respectively sampled at the end of the 1st Month, the 2nd Month, the 3rd Month and the 6th Month for detection; and the results are shown in Table 8. Revaprazan hydrochloride crystalline form III is sealed in a polyethylene film bag, is placed for 6 months under the conditions that the temperature is 40±2° C. and the relative humidity is 75±5%, and is sampled at the end of the 1st Month, the 2nd Month, the 3rd Month and the 6th Month for detection. Revaprazan hydrochloride crystalline form IV is sealed in a polyethylene film bag, is placed for 6 months under the conditions that the temperature is 40±2° C. and the relative humidity is 75±5%, and is sampled at the end of the 1st Month, the 2nd Month, the 3rd Month and the 6th Month for detection. Revaprazan hydrochloride crystalline form V is sealed in a polyethylene film bag and is placed for 6 months under the condition that the temperature is 40±2° C. and the relative humidity is 75±5%, and is sampled at the end of the 1st month, the 2nd month, the 3rd month and the 6th month for detection, and the results are shown in Table 20.

[2] = High humidity test (25° C., relative humidity 75±5%); conditions: for Appearance color / Purity (%) / Weight gain upon moisture absorption (%): 25° C., RH 75±5%; for Weight gain upon moisture absorption (in words): high humidity condition; for Stability (conclusion in words): high humidity, no obvious changes in appearance color, purity, relevant substances
Procedure: Revaprazan hydrochloride crystalline form I is placed in an incubator of 25° C. (relative humidity of 75±5%), and is sampled on the 5th day and 10th day for detection. Revaprazan hydrochloride crystalline form II is placed in an incubator of 25° C. (relative humidity of 75±5%), and is sampled on the 5th day and 10th day for detection. Revaprazan hydrochloride polymorph III is placed in an incubator of 25° C. (relative humidity of 75±5%), and is sampled on the 5th day and the 10th day for detection. Revaprazan hydrochloride crystalline form IV is placed in an incubator of 25° C. Revaprazan hydrochloride crystal form 4 is placed in an incubator of 25° C. (the relative humidity is 75±5%), and is sampled on the 5th day and the 10th day for detection.

[3] = Light illumination test (intense light, 4500±500 Lx); conditions: for Stability (conclusion in words): intense light illumination, no obvious changes in appearance color, loss on drying, purity, relevant substances; for Appearance color / Loss on drying (%) / Purity (%) / Relevant substances: light 4500±500 Lx; for Loss on drying (%) / Purity (%) / Relevant substances: hydrochloride
Source text: Revaprazan hydrochloride crystalline form I is irradiated under such a condition that the light intensity is 4500±500 Lx, and is sampled on the 5th day and 10th day for detection, and the results are shown in Table 1. Revaprazan hydrochloride crystalline form II is irradiated under the condition that the light intensity is 4500±500Lx, and is sampled on the 5th day and 10th day for detection. Revaprazan hydrochloride polymorph III is irradiated under such a condition that the light intensity is 4500±500Lx, and is sampled on the 5th day and 10th day for detection. Revaprazan hydrochloride […] is irradiated under such a condition that the light intensity is 4500±500Lx, and is sampled on the 5th day and the 10th day for detection. Revaprazan hydrochloride crystalline form V is irradiated under the light intensity condition of 4500±500Lx; and is sampled on the 5th day and 10th day for detection.

[4] = High temperature test (60° C. incubator); conditions: for Appearance color / Loss on drying (%) / Purity (%) / Relevant substances: 60° C., hydrochloride; for Stability (conclusion in words): high temperature, no obvious changes in appearance color, loss on drying, purity, relevant substances
Procedure: Revaprazan hydrochloride crystalline form I is placed in a 60° C. incubator, and is sampled on the 5th day and 10th day for detection, and the results are shown in Table 2. Revaprazan hydrochloride crystalline form II is placed in a 60° C. incubator, and is sampled on the 5th day and 10th day for detection, and the results are shown in Table 6. Revaprazan hydrochloride polymorph III is placed in an incubator of 60° C., and is sampled on the 5th day and the 10th day for detection. Revaprazan hydrochloride crystalline form IV is placed in an incubator of 60° C., and is sampled on the 5th day and the 10th day for detection. Revaprazan hydrochloride crystal form 4 is placed in an incubator of 60° C.; and is sampled on the 5th day and the 10th day for detection, and the results are shown in Table 23.

Appearance color ([1]; 1st month): White powder
Purity (%) ([1]; 1st month): 99.91%
Relevant substances ([1]; 1st month): Undetected
Appearance color ([1]; 2nd month): White powder
Purity (%) ([1]; 2nd month): 99.90%
Relevant substances ([1]; 2nd month): Undetected
Appearance color ([1]; 3rd month): White powder
Purity (%) ([1]; 3rd month): 99.95%
Relevant substances ([1]; 3rd month): Undetected
Appearance color ([1]; 6th month): White powder
Purity (%) ([1]; 6th month): 99.94%
Relevant substances ([1]; 6th month): Undetected
Appearance color ([1]; Month 0): White powder
Purity (%) ([1]; Month 0): 99.93%
Relevant substances ([1]; Month 0): Undetected
Stability (conclusion in words) [1]: stable
Appearance color ([2]; 5th day): White powder
Purity (%) ([2]; 5th day, hydrochloride): 99.96%
Weight gain upon moisture absorption (%) ([2]; 5th day, hydrochloride): 0.44%
Appearance color ([2]; 10th day): White powder
Purity (%) ([2]; 10th day, hydrochloride): 99.93%
Weight gain upon moisture absorption (%) ([2]; 10th day, hydrochloride): 0.62%
Appearance color ([2]; Day 0): White powder
Weight gain upon moisture absorption (%) ([2]; Day 0): 0%
Purity (%) ([2]; Day 0, hydrochloride): 99.93%
Weight gain upon moisture absorption (in words) [2]: slight weight gain
Stability (conclusion in words) [2]: stable
Stability (conclusion in words) [3]: stable
Appearance color ([3]; 5th day): White powder
Loss on drying (%) ([3]; 5th day): 0.29%
Purity (%) ([3]; 5th day): 99.95%
Relevant substances ([3]; 5th day): Undetected
Appearance color ([3]; 10th day): White powder
Loss on drying (%) ([3]; 10th day): 0.31%
Purity (%) ([3]; 10th day): 99.92%
Relevant substances ([3]; 10th day): Undetected
Appearance color ([3]; Day 0): White powder
Loss on drying (%) ([3]; Day 0): 0.27%
Purity (%) ([3]; Day 0): 99.93%
Relevant substances ([3]; Day 0): Undetected
Appearance color ([4]; 5th day): White powder
Loss on drying (%) ([4]; 5th day): 0.27%
Purity (%) ([4]; 5th day): 99.91%
Relevant substances ([4]; 5th day): Undetected
Appearance color ([4]; 10th day): White powder
Loss on drying (%) ([4]; 10th day): 0.27%
Purity (%) ([4]; 10th day): 99.92%
Relevant substances ([4]; 10th day): Undetected
Appearance color ([4]; Day 0): White powder
Loss on drying (%) ([4]; Day 0): 0.25%
Purity (%) ([4]; Day 0): 99.93%
Relevant substances ([4]; Day 0): Undetected
Stability (conclusion in words) [4]: stable
Compound: Cc1nc(Nc2ccc(F)cc2)nc(N2CCc3ccccc3C2C)c1C (single isomer, unassigned) [revaprazan hydrochloride crystalline form IV]

Appearance color ([1]; 1st month): White powder
Purity (%) ([1]; 1st month): 99.98%
Relevant substances ([1]; 1st month): Undetected
Appearance color ([1]; 2nd month): White powder
Purity (%) ([1]; 2nd month): 99.95%
Relevant substances ([1]; 2nd month): Undetected
Appearance color ([1]; 3rd month): White powder
Purity (%) ([1]; 3rd month): 99.97%
Relevant substances ([1]; 3rd month): Undetected
Appearance color ([1]; 6th month): White powder
Purity (%) ([1]; 6th month): 99.94%
Relevant substances ([1]; 6th month): Undetected
Appearance color ([1]; Month 0): White powder
Purity (%) ([1]; Month 0): 99.94%
Relevant substances ([1]; Month 0): Undetected
Stability (conclusion in words) [1]: stable
Appearance color ([2]; 5th day): White powder
Purity (%) ([2]; 5th day, hydrochloride): 99.94%
Weight gain upon moisture absorption (%) ([2]; 5th day, hydrochloride): 0.42%
Appearance color ([2]; 10th day): White powder
Purity (%) ([2]; 10th day, hydrochloride): 99.96%
Weight gain upon moisture absorption (%) ([2]; 10th day, hydrochloride): 0.66%
Appearance color ([2]; Day 0): White powder
Weight gain upon moisture absorption (%) ([2]; Day 0): 0%
Purity (%) ([2]; Day 0, hydrochloride): 99.94%
Weight gain upon moisture absorption (in words) [2]: slight weight gain
Stability (conclusion in words) [2]: stable
Stability (conclusion in words) [3]: stable
Appearance color ([3]; 5th day): White powder
Loss on drying (%) ([3]; 5th day): 0.27%
Purity (%) ([3]; 5th day): 99.95%
Relevant substances ([3]; 5th day): Undetected
Appearance color ([3]; 10th day): White powder
Loss on drying (%) ([3]; 10th day): 0.30%
Purity (%) ([3]; 10th day): 99.95%
Relevant substances ([3]; 10th day): Undetected
Appearance color ([3]; Day 0): White powder
Loss on drying (%) ([3]; Day 0): 0.24%
Purity (%) ([3]; Day 0): 99.94%
Relevant substances ([3]; Day 0): Undetected
Appearance color ([4]; 5th day): White powder
Loss on drying (%) ([4]; 5th day): 0.30%
Purity (%) ([4]; 5th day): 99.95%
Relevant substances ([4]; 5th day): Undetected
Appearance color ([4]; 10th day): White powder
Loss on drying (%) ([4]; 10th day): 0.32%
Purity (%) ([4]; 10th day): 99.92%
Relevant substances ([4]; 10th day): Undetected
Appearance color ([4]; Day 0): White powder
Loss on drying (%) ([4]; Day 0): 0.29%
Purity (%) ([4]; Day 0): 99.94%
Relevant substances ([4]; Day 0): Undetected
Stability (conclusion in words) [4]: stable
Compound: Cc1nc(Nc2ccc(F)cc2)nc(N2CCc3ccccc3C2C)c1C (single isomer, unassigned) [revaprazan hydrochloride crystalline form V]
